The values that follow come from PubChem BioAssay AID493117 (Broad Institute, 2011).

Inconclusive results are not listed. The source made the active and inactive calls.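 How the source made its calls: active means every test run gives a fitted half-maximal dose no higher than ten times the top tested dose, with signal falling; inconclusive means runs disagree, or a flat mid-level drop or poor fit; inactive means every test run inactive.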

The assay has as its target Autoinducer 2-binding periplasmic protein LuxP (Vibrio harveyi) + Autoinducer 2 sensor kinase/phosphatase LuxQ (Vibrio harveyi) (UniProt P54300+P54302). Kind of assay: AI-2 driven bioluminescence decrease, LuxPQ pathway – strain MM32 LuxS-null, luminescence, dry powder, set 3, mechanism study for V. harveyi quorum sensing inhibitors, dose response (AID 493117). As to conditions: AI-2 luminescence, 5 h; for activity change, negative = inhibition: at 16 µM (top of the series).

Autoinducer 2-binding periplasmic protein LuxP (Vibrio harveyi) + Autoinducer 2 sensor kinase/phosphatase LuxQ (Vibrio harveyi), sequence (P54300 whole entry, looked up): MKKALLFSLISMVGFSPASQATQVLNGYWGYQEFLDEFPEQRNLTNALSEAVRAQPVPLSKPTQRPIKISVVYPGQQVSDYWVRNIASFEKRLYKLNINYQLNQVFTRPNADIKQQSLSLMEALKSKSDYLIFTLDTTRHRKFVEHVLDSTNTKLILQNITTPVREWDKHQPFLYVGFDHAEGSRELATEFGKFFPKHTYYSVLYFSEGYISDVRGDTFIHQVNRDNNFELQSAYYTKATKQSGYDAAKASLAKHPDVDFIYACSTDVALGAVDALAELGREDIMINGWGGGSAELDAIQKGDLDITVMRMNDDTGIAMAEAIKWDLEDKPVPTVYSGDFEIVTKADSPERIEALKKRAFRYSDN
Autoinducer 2-binding periplasmic protein LuxP (Vibrio harveyi) + Autoinducer 2 sensor kinase/phosphatase LuxQ (Vibrio harveyi), sequence (P54302 whole entry, looked up): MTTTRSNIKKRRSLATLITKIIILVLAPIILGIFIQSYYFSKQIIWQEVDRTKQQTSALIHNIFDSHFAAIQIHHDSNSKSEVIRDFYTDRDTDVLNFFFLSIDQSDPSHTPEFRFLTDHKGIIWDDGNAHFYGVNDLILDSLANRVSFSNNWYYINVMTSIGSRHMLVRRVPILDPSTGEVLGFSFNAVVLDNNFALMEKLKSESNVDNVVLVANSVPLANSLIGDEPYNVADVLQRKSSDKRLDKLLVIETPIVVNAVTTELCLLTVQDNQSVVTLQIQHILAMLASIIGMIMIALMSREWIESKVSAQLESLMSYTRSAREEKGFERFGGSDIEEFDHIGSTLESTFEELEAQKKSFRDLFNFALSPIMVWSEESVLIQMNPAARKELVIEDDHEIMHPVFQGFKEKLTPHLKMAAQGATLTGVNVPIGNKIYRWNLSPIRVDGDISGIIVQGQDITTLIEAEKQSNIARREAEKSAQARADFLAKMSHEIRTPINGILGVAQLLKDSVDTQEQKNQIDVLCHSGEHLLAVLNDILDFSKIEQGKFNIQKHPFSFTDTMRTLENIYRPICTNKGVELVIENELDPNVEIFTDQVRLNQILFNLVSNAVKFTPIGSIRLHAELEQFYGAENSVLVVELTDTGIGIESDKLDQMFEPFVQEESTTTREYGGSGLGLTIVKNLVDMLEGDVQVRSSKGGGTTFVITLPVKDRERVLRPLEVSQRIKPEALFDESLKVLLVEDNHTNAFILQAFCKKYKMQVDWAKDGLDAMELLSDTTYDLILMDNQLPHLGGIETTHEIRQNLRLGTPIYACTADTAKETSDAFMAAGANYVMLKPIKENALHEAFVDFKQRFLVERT

For the molecule `Cc1noc(C)c1S(=O)(=O)Nc1ccc2c(c1)C(=O)N([C@@H](C)CO)C[C@@H](C)[C@@H](CN(C)Cc1ccc(Oc3ccccc3)cc1)O2`, the AC50 (as a rule, the concentration at which the activity in the assay is half-maximal) was 18.4 µM.

Regarding `Cn1cnc(S(=O)(=O)Nc2ccccc2F)c1`, the “activity change, negative = inhibition” value is “inactive”.

In the case of `C[C@@H]1CN([C@H](C)CO)C(=O)c2ccccc2-c2ccccc2CO[C@@H]1CN(C)Cc1ccc(Oc2ccccc2)cc1`, the AC50 is 11.3 µM.

Regarding `C=Cn1c(C(=O)O)ccc1-c1ccc(Cl)cc1`, the AC50 is 4.46 µM.

On to `O=S(=O)(Nc1cccnc1)c1ccc(Oc2ccccc2)cc1`, for which the AC50 was 0.591 µM.

In the case of `COc1ccccc1NS(=O)(=O)c1cn(C)cn1`, the “activity change, negative = inhibition” value is “inactive”.

Take `C=Cn1c(C(=O)O)ccc1-c1cccs1`: the “activity change, negative = inhibition” value is “inactive”.

For the molecule `C[C@H](CO)N1C[C@H](C)[C@H](CN(C)Cc2ccc(C(=O)O)cc2)Oc2ncc(-c3ccc(C(=O)N(C)C)cc3)cc2C1=O`, the “activity change, negative = inhibition” value was “inactive”.

For `C=Cn1c(C(=O)O)ccc1-c1ccc(OC)cc1`, the AC50 is 7.08 µM.

With `Cn1cnc(S(=O)(=O)Nc2ccccc2Cl)c1`, the “activity change, negative = inhibition” value was “inactive”.

Take `CC(=O)Nc1ccccc1NS(=O)(=O)c1cn(C)cn1`: the “activity change, negative = inhibition” value is “inactive”.

For `CN(C)C(=O)c1ccccc1NS(=O)(=O)c1cn(C)cn1`, the “activity change, negative = inhibition” value is “inactive”.

Regarding `O=C1C=C/C(=C/Br)O1`, the AC50 is 3.45 µM.

As for `Cn1cnc(S(=O)(=O)Nc2ccc(OC(F)(F)F)cc2)c1`, the AC50 was 2.42 µM.

As to `Cc1ccccc1NS(=O)(=O)c1cn(C)cn1`, the “activity change, negative = inhibition” value is “inactive”.

On to `CCc1ccc(-c2ccc(C(=O)O)n2CC)cc1`, for which the “activity change, negative = inhibition” value is “inactive”.

`C=Cn1c(C(=O)O)ccc1-c1ccc(CC)cc1`: the AC50 is 2.32 µM.

`O=S(=O)(Nc1ccccn1)c1ccccc1`: the “activity change, negative = inhibition” value is “inactive”.

With `O=S(=O)(Nc1ccccn1)c1ccc(Oc2ccccc2)cc1`, the AC50 was 1.35 µM.

Turning to `CCc1ccc(-c2ccc(C(=O)O)n2C)cc1`, the AC50 was 3.61 µM.
